According to EP0705258B1, “AZOLYL-CYCLIC AMINE DERIVATIVES WITH IMMUNOMODULATORY ACTIVITY” (Knoll AG, priority 1993, dated 1995):
pIC50: −log10 of the molar value. Structures can show the parent of a compound that is named as a salt.

Experiments:
[1] = tested on: tumour necrosis factor-α (TNF-α); test: Mouse Tumour Necrosis Factor Test (Test B), mouse endotoxin shock model, serum TNF-α by ELISA; assay type: in vivo, BALB/c mice; settings: minimum effective oral dose giving significant reduction in serum TNF-α of ≥35%, dosed 2 h before LPS i.p., ≤ = active at dose given but not tested at lower doses; for minimal effective dose: Mus musculus, read-out: MTNF:MED
Description: Preferred compounds of the present invention are active in an in-vivo test which determines the ability of the compounds to inhibit the release of tumour necrosis factor-α (TNF-α) in a mouse endotoxin shock model (Test B). This model is similar to that described by Zuckerman and Bendele (1989), Infection and Immunity 57 (10): p3009-3013.
Each compound of formula I was combined with a carrier of a solution of 1.5% v/v sorbitan esters under the trade name Tween 80 and 0.25% v/v cellosize in sterile water (100 µl) and was administered orally to a group of four BALB/c mice. The concentration of compound was such as to provide dosages selected from 100, 30, 10, 3, 1, 0.1 and 0.03 mg/kg. Two hours after such oral administration, lipopolysaccharide (LPS) (E. coli 0127:B8) (100 µg) in sterile water (0.2 ml) was administered intraperitoneally to the test mice.
A control group of eight BALB/c mice was treated in a similar manner as the test group except that no test compound was included with the carrier.
One hour after LPS administration the mice were killed and blood was collected by cardiac puncture. The blood was incubated at 20°C for 2 hours and the serum was separated from the clotted blood following centrifugation. Serum tumour necrosis factor-α (TNF-α) levels were assayed by an enzyme-linked immunosorbent assay (ELISA) and the concentration of TNF-α in each of the drug-treated groups was compared with the control group by one-way analysis of variance followed by a multiple t-test.
The ELISA was carried out by coating a 96-well vinyl assay plate (Costar) overnight at 4°C with 50 µl per well of 2 µg/ml hamster anti-mouse TNF monoclonal antibody in 0.1M sodium hydrogen carbonate buffer at pH 8.2. After washing the plate with phosphate buffered saline (PBS) containing 0.05% v/v sorbitan esters under the trade name Tween 20 (wash buffer), a blocking/dilution buffer (10% sheep serum in PBS containing 0.1% v/v sorbitan esters under the trade name Tween 20 (200 µl)) was aliquoted to each well and incubated at 37°C for 0.5 hours. After aspirating the blocking buffer, the serum samples and pure TNF (as a standard) diluted in blocking/dilution buffer, were added to the wells and incubated at 37°C for 2 hours. After washing with the wash buffer, a polyclonal rabbit anti-mouse TNF-α antibody in blocking/dilution buffer (100 µl of a 1 in 10,000 dilution) was added and incubated for a further 1.5 hours at 37°C. After further washes, anti-rabbit IgG peroxidase conjugate (100 µl of a 1 in 4000 dilution) was added and incubated at 37°C for 0.5 hours. After further washing, the substrate solution (100 µl per well of 0.1 mg/ml 3,3', 5,5'-tetramethylbenzidine dihydrochloride in 0.1M phosphate citrate buffer, pH 5.0, to which 2 µl of 30% hydrogen peroxide per 10 ml was added just before use) was added and the colour allowed to develop. The reaction was stopped by the addition of 1M sulphuric acid (25 µl) and the optical density read in a multichannel spectrophotometer at 450 nm. The mean TNF-α concentration was determined by comparison with the standard curve and the mean TNF-α concentration for each group compared with that produced by the control group. Drug treatments which cause a statistically significant reduction in TNF-α concentration of ≥35% at a single dose at 100 mg/kg or less were considered active.

[2] = tested on: lymphocyte proliferation (BALB/c responder and mitomycin C treated C57BL/6 stimulator spleen cells); test: Mixed Lymphocyte Reaction (Test A), one-way MLR, tritiated thymidine incorporation; assay type: cell-based, mice; settings: concentration causing 50% inhibition of lymphocyte proliferation, by linear interpolation, ≤ = active at this concentration but not tested at lower doses
Description: A mixed lymphocyte reaction (MLR) occurs when lymphocytes from two genetically dissimilar individuals, or inbred strains of mice are cultured together. An MLR results in the activation and proliferation of lymphocytes, which is measured by the incorporation of radiolabelled thymidine into the cellular DNA synthesised during cell division. A 'one-way' MLR is used to determine the immunosuppressive activity of test compounds in vitro. In this reaction one population of spleen cells serves as the stimulator cells and is treated with mitomycin C to prevent cell division. Spleen cells from a second allogeneic population (responder cells) are untreated and when mixed with the stimulator cells are able to undergo division which is measured. The degree of proliferation is measured in the presence and absence of test compound to assess the immunosuppressive activity of the compound.
The techniques for carrying out lymphocyte proliferation assays including MLRs are well known, eg Bradley, pages 156-166, in Mishell and Shiigi, Eds. Selected Methods in Cellular Immunology (Freeman, San Francisco, 1980); and Battisto et al, methods in Enzymology 1987; 150: 83-91. Various slight modifications of these techniques are in use and that used herein is described in Gibb, Webber and Bowen, J Immunological Methods 1985; 81: 107-113.
Cell suspensions obtained from the spleens of female BALB/c and C57BL/6 strain mice of between 6 and 9 weeks of age were used as sources of responder and stimulator cells respectively. The mice were killed using a rising concentration of CO2 and the spleens removed aseptically and teased using a scalpel and forceps to produce a single cell suspension in Hanks balanced salt solution (HBSS). The suspensions were filtered through cell strainers (Falcon), sedimented by centrifugation and resuspended in Tris-buffered ammonium chloride pH 7.2 (medium D) to lyse the erythrocytes. The cells were sedimented again and washed twice in HBSS before resuspending in complete RPMI 1640 tissue culture medium (medium E). The C57BL/6 cells were resuspended to 9 mls per spleen and a solution of mitomycin C at 400 µg/ml in medium E added to give a final concentration of 40 µg/ml. After incubation of the C57BL/6 cells at 37°C for 30 minutes in an atmosphere of 5% CO2 and 95% air, the cells were sedimented and washed 3 times in medium E. Both cell suspensions were diluted in medium E to 5 x 10^6 cells/ml. 100µl of each of the responder and stimulator cell suspensions were aliquoted into the wells of 96 well flat bottom microtitre plates containing 50 µl of test compound at an appropriate dilution (initially 50 µM diluted in medium E from a stock solution at 100 mM in dimethyl sulphoxide) giving a final test compound concentration of 10 µM (final dilution). Compounds active at this concentration were tested at further final dilution of 1 µM, 0.1 µM and 0.01 µM and 0.001 µM to determine the concentration of test compound which causes 50% inhibition of the immune response (IC50). After four days of culture at 37°C in a humidified atmosphere of 5% CO2 and 95% air, 1 µCi of tritiated thymidine in 20 µl of medium E was added to each well and the plates incubated for a further 24 hours. Cells were then harvested onto Inotech G7 glass fibre filter mats using an Inotech cell harvester. The filters were transferred to vials to which 2 ml of Packard Emulsifier-Safe scintillation fluid was added and the radioactivity from the incorporated thymidine was counted in a Packard liquid scintillation counter. The counts per minute (CPM) reflect the degree of lymphocyte proliferation. The data were analysed to determine the percentage inhibition of lymphocyte proliferation by the test compound. […]

| Molecule | pIC50 ([2]; Mus musculus) | minimal effective dose [1] [mg/kg] | further results |
| --- | --- | --- | --- |
| 4-[2-(4-Methylimidazol-1-yl)ethyl]-1-(3-phenylpropyl)piperidine and 4-[2-(5-Methylimidazol-1-yl)ethyl]-1-(3-phenylpropyl)piperidine [Example 118] |  |  | MTNF:MED [1]: ≤100 mg/kg; pIC50 [2]: 5.85 |
| O=C(CCc1ccccc1)N1CCC(CCn2ccnc2)CC1 [Example 50, 4-[2-(imidazol-1-yl)ethyl]-1-(3-phenylpropionyl)piperidine] | 6.70 |  |  |
| Cl.Cl.O=C(CCc1ccccc1)N1CCCCC1CCn1ccnc1 (stereo not shown) [Example 52, 2-[2-(Imidazol-1-yl)ethyl]-1-(3-phenylpropionyl)piperidine dihydrochloride] |  | 100 |  |
| O=C(CCc1ccccc1)N1CCCC(Cn2ccnc2)C1 (stereo not shown) [Example 53, 3-Imidazol-1-ylmethyl-1-(3-phenylpropionyl)-piperidine] |  | 30 |  |
| O=C(CCc1ccccc1)N1CCC(CCCn2ccnc2)CC1 [Example 56, 4-[3-(Imidazol-1-yl)propyl]-1-(3-phenylpropionyl)piperidine] | ≥ 6.00 |  |  |
| Cc1nccn1CCC1CCN(C(=O)CCc2ccc(Cl)cc2)CC1 [Example 57, 1-[3-(4-Chlorophenyl)propionyl]-4-[2-(2-methylimidazol-1-yl)ethyl]piperidine] | ≥ 6.00 | 100 |  |
| CC(C)c1nccn1CCC1CCN(C(=O)CCc2ccccc2)CC1 [Example 58, 4-[2-(2-Isopropylimidazol-1-yl)ethyl]-1-(3-phenylpropionyl)piperidine] | 8.40 |  |  |
| CCCCCCCCCCCc1nccn1CCC1CCN(C(=O)CCc2ccccc2)CC1 [Example 62, 1-(3-Phenylpropionyl)-4-[2-(2-undecylimidazol-1-yl)ethyl]piperidine] | 5.72 |  |  |
| Cc1nc2ccccc2n1CCC1CCN(C(=O)CCc2ccccc2)CC1 [Example 65, 2-Methyl-1-{2-[1-(3-phenylpropionyl)-piperidin-4-yl]ethyl}benzimidazole] | 5.42 |  |  |
| CCc1nccn1CC1CCN(C(=O)CCc2ccccc2)CC1 [Example 66, 4-(2-Ethylimidazol-1-ylmethyl)-1-(3-phenylpropionyl)piperidine] | ≥ 6.00 |  |  |
| Cc1nccn1CCC1CCN(C(=O)CCc2ccccc2)CC1 [Example 72, 4-[2-(2-Methylimidazol-1-yl)ethyl]-1-(3-phenylpropionyl)piperidine] | 7.52 |  |  |
| Cc1nccn1CCC1CCN(C(=O)CCCc2ccccc2)CC1 [Example 82, 4-[2-(2-Methylimidazol-1-yl)ethyl]-1-(4-phenylbutyroyl)piperidine] | ≥ 6.00 |  |  |
| O=C(CCCc1ccccc1)N1CCC(CCn2ccnc2)CC1 [Example 85, 4-[2-(Imidazol-1-yl)ethyl]-1-(4-phenylbutyroyl)piperidine] | 6.22 |  |  |
| c1ccc(SCCN2CCC(CCn3ccnc3)CC2)cc1 [Example 86, 4-[2-(imidazol-1-yl)ethyl]-1-(2-phenylthioethyl)piperidine] | 5.59 | ≤ 10 |  |
| O=C(CCN1CCC(CCn2ccnc2)CC1)c1ccccc1 [Example 89, 4-[2-(Imidazol-1-yl)ethyl]-1-(3-oxo-3-phenylpropyl)piperidine] |  | ≤ 30 |  |
| O=C(c1ccccc1Cl)c1nccn1CCC1CCN(CCCc2ccccc2)CC1 [Example 92, 4-{2-[2-(2-Chlorobenzoyl)imidazol-1-yl]-ethyl}-1-(3-phenylpropyl)piperidine] |  | ≤ 10 |  |
| Cc1ccc(CCC(=O)N2CCC(CCn3ccnc3C)CC2)cc1 [Example 94, 4-[2-(2-methylimidazol-1-yl)ethyl]-1[3-(4-methylphenyl)propionyl]piperidine] | ≥ 6.00 |  |  |
| c1ccc(CCCN2CCN(CCn3ccnc3)CC2)cc1 [Example 95, 1-[2-imidazol-1-yl)ethyl]-4-(3-phenylpropyl)piperazine trihydrochloride] | 5.55 | ≤ 3 |  |
| c1ccc(CCCC2CCN(CCn3cncn3)CC2)cc1 [Example 97, 1-[2-(1H-1,2,4-triazol-1-yl)ethyl]-4-(3-phenylpropyl)-piperidine dihydrochloride] | 5.64 |  |  |
| c1ccc(CCCN2CCC(CCCn3ccnc3)CC2)cc1 [Example 104, 4-[3-(Imidazol-1-yl)propyl]-1-(3-phenylpropyl)piperidine] | ≥ 6.00 | ≤ 100 |  |
| Cc1nccn1CCC1CCN(CCCc2ccc(Cl)cc2)CC1 [Example 105, 1-[3-(4-Chlorophenyl)propyl]-4-[2-(2-methylimidazol-1-yl)ethyl]piperidine] | ≥ 6.00 |  |  |
| c1ccc(CCCN2CCC(CCn3cnc(-c4ccccc4)c3-c3ccccc3)CC2)cc1 [Example 108, 4-[2-(4,5-Diphenylimidazol-1-yl)ethyl]-1-(3-phenylpropyl)piperidine] | 5.92 |  |  |
| c1ccc(CCCN2CCC(CCn3cncn3)CC2)cc1 [Example 111, 1-(3-Phenylpropyl)-4-[2-(1H-1,2,4-triazol-1-yl)ethyl]piperidine] | 5.14 | ≤ 10 |  |
| c1ccc(CCCN2CCC(CCn3ccnn3)CC2)cc1 [Example 119, 1-(3-Phenylpropyl)-4-[2-(1H-1,2,3-triazol-1-yl)ethyl]piperidine] | 5.62 |  |  |
| COc1ccc(CCCN2CCC(CCn3ccnc3)CC2)cc1 [Example 124, 4-[2-(Imidazol-1-yl)ethyl]-1-[3-(4-methoxyphenyl)propyl]piperidine] |  | ≤ 30 |  |
